Measurements taken from US20260295053A1, “COMPOUNDS FOR DEGRADATION AND INHIBITION OF KRAS (G12D) PROTEIN” (Shenzhen Ionova Life Science Co., Ltd., priority 2023, published 2026).

Assays:
KRAS (G12D) = target: T1, KRAS (G12D) (Homo sapiens, UniProt P01116, G12D); assay: KRAS (G12D) cellular degradation assay in AsPC-1 cells; format: cell-based; conditions: 24 hours, antibody fluorescence (Odyssey CLX), DC50 half-maximal degradation concentration
T1 construct: in-cell western with KRAS G12D antibody after 24 h
T1 sequence (P01116 1-188 isoform P01116-2 G12D): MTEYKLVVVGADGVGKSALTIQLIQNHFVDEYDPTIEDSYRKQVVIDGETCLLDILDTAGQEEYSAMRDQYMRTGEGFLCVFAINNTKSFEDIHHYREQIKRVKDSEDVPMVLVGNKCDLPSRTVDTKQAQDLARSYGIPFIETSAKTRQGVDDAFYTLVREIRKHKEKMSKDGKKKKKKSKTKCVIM
Procedure, shortened: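 Proliferation IC50 comes from CellTiter Glo luminescence after 6 days' exposure of AsPC-1 (3,500 cells/well) to 1:3 dilutions from […] to 1.5 nM. KRAS G12D DC50 derives from in-cell immunofluorescence normalised to β-actin after 24 h treatment of near-confluent AsPC-1 cells over the same range.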

AsPC-1 cells = assay: AsPC-1 cell proliferation assay (CellTiter Glo); format: cell-based; conditions: Homo sapiens, ASPC1, 144 h, 6 days
Method: ASPC-1 and PK-59 cellular assays ASPC-1 (ATCC cat. CRL-1682) and PK-59 (Nanjing Cobioer, Cat. No. CBP61184) were used in KRAS cellular degradation, pERK inhibition and proliferation assays. The two cell lines were maintained following vendor's instructions. For monitoring KRAS (G12D) cellular degradation and pERK biomarker inhibition, cells were seeded into a 96-well plate with 22,000 and 16,000 cells/well for assays in ASPC-1 and PK-59, respectively. Cells were incubated at 37° C. with 5% CO2 and cell density was monitored until ^~90% confluency was reached. Compounds were serially diluted at a 1:3 ratio and dispensed into each well at final concentrations ranging from […] to 1.5 nM. After incubation for 24 hours, the culture media were removed and the cells were subjected to fixation, permeabilization and blocking (Intercept blocking buffer, Li-cor). For KRAS (G12D) degradation, the cells were treated with primary antibody (KRAS G12D antibody, Cell Signaling Technologies, Cat. No. CST14429) and for β-actin (β-actin mAb, Beyotime, Cat. No. AF-5001), and followed by secondary antibodies, Anti-rabbit IgG (H+L) (DyLight™ 800 4×PEG Conjugate) or IRDye® 680RD Goat anti-Mouse IgG. For pERK inhibition assay, cells were treated with primary antibodies for pERK (Phospho-p44/42 MAPK (Erk1/2) (Thr202/Tyr204) (D13.14.4E) XP® Rabbit mAb, Cell Signaling Technologies, Cat. No. CST-4370) and β-actin (β-actin mAb, Beyotime, Cat. No. AF-5001), and followed by secondary antibodies, Anti-rabbit IgG (H+L) (DyLight™ 800 4×PEG Conjugate) or IRDye® 680RD Goat anti-Mouse IgG. Fluorescence signals were read on Odyssey CLX instrument. For cell proliferation assays, cells were seeded into a 96-well plate at 3,500 and 800 cells/well for assays in ASPC-1 and PK-59, respectively. Cells were incubated at 37° C. with 5% CO2 for overnight. Compounds were serially diluted at a 1:3 ratio and dispensed into each well at final concentrations ranging from […] to 1.5 nM. After incubation for 6 days, cell viability reagent (CellTiter Glo, Promega, Cat. No. G7573) was added to each well and luminescence was recorded on Molecular Devices Spectramax iD3 instrument. IC50, half-maximal inhibitory concentration for pERK inhibition or cell proliferation, and DC50, half-maximal degradation concentration in KRAS (G12D) cellular degradation were determined by fitting the corresponding dose response curves using GraphPad Prism software.
Wherein “A” means the value <10 nM, “B” means 10 nM<the value <100 nM, “C” means 100 nM<the value <1000 nM, and “D” means the value >1000 nM, in which, the value means the value of DC50 or IC50. NT means not tested.

DC50 (KRAS (G12D)) [nM]	IC50 (AsPC-1 cells) [nM]	Compound
< 10	< 10	CCn1nccc1-c1ccc([C@@H](NC(=O)[C@@H]2C[C@@H](O)CN2C(=O)[C@H](C(C)C)n2cc(-c3ccc(COc4c(-c5c(C)c(F)cc6[nH]ncc56)c(C5CC5)cc5c(N6C[C@@H]7C[C@H]6CN7)nc(OC[C@H](C)OC)nc45)cc3)nn2)[C@@H](C)O)cc1 [Example 73, (2S,4R)-1-((2S)-2-(4-(4-(((4-((1S,4S)-2,5-diazabicyclo[2.2.1]heptan-2-yl)-6-cyclopropyl-7-(6-fluoro-5-methyl-1H-indazol-4-yl)-2-((S)-2-methoxypropoxy)quinazolin-8-yl)oxy)methyl)phenyl)-1H-1,2,3-triazol-1-yl)-3-methylbutanoyl)-N-((1R,2R)-1-(4-(1-ethyl-1H-pyrazol-5-yl)phenyl)-2-hydroxypropyl)-4-hydroxypyrrolidine-2-carboxamide]
< 10	< 10	CO[C@@H](C)COc1nc(N2C[C@@H]3C[C@H]2CN3)c2cc(C3CC3)c(-c3c(C)c(F)cc4[nH]ncc34)c(OCc3ccc(-c4cn([C@H](C(=O)N5C[C@H](O)C[C@H]5C(=O)N[C@H](C#Cc5cccc(F)c5F)CO)C(C)C)nn4)cc3)c2n1 [Example 60, (2S,4R)-1-((2S)-2-(4-(4-(((4-((1S,4S)-2,5-diazabicyclo[2.2.1]heptan-2-yl)-6-cyclopropyl-7-(6-fluoro-5-methyl-1H-indazol-4-yl)-2-((S)-2-methoxypropoxy)quinazolin-8-yl)oxy)methyl)phenyl)-1H-1,2,3-triazol-1-yl)-3-methylbutanoyl)-N—((R)-4-(2,3-difluorophenyl)-1-hydroxybut-3-yn-2-yl)-4-hydroxypyrrolidine-2-carboxamide]
< 10	< 10	Cc1ncsc1-c1ccc([C@@H](NC(=O)[C@@H]2C[C@@H](O)CN2C(=O)[C@H](C(C)C)n2cc(-c3ccc(COc4c(-c5c(C)c(F)cc6[nH]ncc56)c(C5CC5)cc5c(N6C[C@@H]7C[C@H]6CN7)nc(OC6CC7COCC7C6)nc45)cc3)nn2)[C@H](C)O)cc1 (stereo partly drawn) [Example 132, (2S,4R)-1-((2S)-2-(4-(4-(((4-((1S,4S)-2,5-diazabicyclo[2.2.1]heptan-2-yl)-6-cyclopropyl-7-(6-fluoro-5-methyl-1H-indazol-4-yl)-2-((hexahydro-1H-cyclopenta[c]furan-5-yl)oxy)quinazolin-8-yl)oxy)methyl)phenyl)-1H-1,2,3-triazol-1-yl)-3-methylbutanoyl)-4-hydroxy-N-((1R,2S)-2-hydroxy-1-(4-(4-methylthiazol-5-yl)phenyl)propyl)pyrrolidine-2-carboxamide]
10 to 100	< 10	CO[C@@H](C)COc1nc(N2C[C@@H]3C[C@H]2CN3)c2cc(C3CC3)c(-c3c(C)c(F)cc4[nH]ncc34)c(OCc3ccc(-c4cn([C@H](C(=O)N5C[C@H](O)C[C@H]5C(=O)N[C@H](C#Cc5cccc(Cl)c5F)CO)C(C)C)nn4)cc3)c2n1 [Example 78, (2S,4R)-1-((2S)-2-(4-(4-(((4-((1S,4S)-2,5-diazabicyclo[2.2.1]heptan-2-yl)-6-cyclopropyl-7-(6-fluoro-5-methyl-1H-indazol-4-yl)-2-((S)-2-methoxypropoxy)quinazolin-8-yl)oxy)methyl)phenyl)-1H-1,2,3-triazol-1-yl)-3-methylbutanoyl)-N—((R)-4-(3-chloro-2-fluorophenyl)-1-hydroxybut-3-yn-2-yl)-4-hydroxypyrrolidine-2-carboxamide]
